From patent US10208019B2, “GLP-1 receptor agonists and uses thereof” (Pfizer Inc., priority 2016, dated 2019)
pEC50: −log10 of the molar value. Read-outs that look alike come from different tables or passages of the source.

Target: human GLP-1R (Homo sapiens, UniProt P43220, G168S)
Experiment: CHO GLP-1R Clone H6—Assay 1: HTRF cAMP cell-based functional agonist assay (high GLP-1R density)
Settings: for pEC50: read-out: Assay 1 EC50; for Emax: read-out: Assay 1 Emax (%), CHO GLP-1R Clone H6
[1] = CHO GLP-1R Clone H6, cAMP HTRF, geometric mean
[2] = relative to saturating concentration of full agonist GLP-1 (1 μM), arithmetic mean

human GLP-1R, sequence (P43220 24-463 G168S limits assumed): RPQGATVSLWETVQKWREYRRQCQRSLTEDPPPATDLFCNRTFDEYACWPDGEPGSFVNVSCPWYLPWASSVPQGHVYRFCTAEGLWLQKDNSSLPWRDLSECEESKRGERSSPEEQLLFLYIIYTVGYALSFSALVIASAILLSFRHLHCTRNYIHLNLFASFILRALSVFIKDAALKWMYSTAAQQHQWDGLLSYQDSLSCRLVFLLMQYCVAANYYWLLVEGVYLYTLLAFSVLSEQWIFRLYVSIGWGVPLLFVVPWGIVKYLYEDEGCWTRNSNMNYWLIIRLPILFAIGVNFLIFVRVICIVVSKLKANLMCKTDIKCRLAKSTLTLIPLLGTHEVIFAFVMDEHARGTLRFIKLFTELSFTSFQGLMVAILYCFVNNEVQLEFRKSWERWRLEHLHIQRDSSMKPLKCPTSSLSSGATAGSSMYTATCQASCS

COCCn1c(CN2CCN(c3cccc(OCc4ccc(Cl)cc4F)n3)CC2C(F)(F)F)nc2ccc(C(=O)O)cc21 (single isomer, unassigned; enantiomer 1) [Example 12A-01, 2-((4-(6-((4-Chloro-2-fluorobenzyl)oxy)pyridin-2-yl)-2-(trifluoromethyl)piperazin-1-yl)methyl)-1-(2-methoxyethyl)-1H-benzo[d]imidazole-6-carboxylic acid, enantiomer 1]
EC50 (Assay 1 EC50 (nM), CHO GLP-1R Clone H6, cAMP HTRF, geometric mean): > 20000 nM

COCCn1c(CN2CCC(c3cccc(OCc4ccc(Cl)cc4F)n3)CC2)nc2ccc(C(=O)O)cc21 [Example 1A-02, 2-[(4-{6-[(4-chloro-2-fluorobenzyl)oxy]pyridin-2-yl}piperidin-1-yl)methyl]-1-(2-methoxyethyl)-1H-benzimidazole-6-carboxylic acid]
pEC50 [1]: 7.80
Emax [2]: 85%

O=C(O)c1ccc2nc(CN3CCC(c4cccc(OCc5ccc(Cl)cc5F)n4)CC3)n(Cc3cnoc3)c2c1 [Example 10A-68]
pEC50 [1]: 6.85
Emax [2]: 76%

COC[C@H](C)n1c(CN2CCC(c3cccc(OCc4ccc(Cl)cc4F)n3)CC2)nc2ccc(C(=O)O)cc21 [Example 11A-45, 2-[(4-{6-[(4-chloro-2-fluorobenzyl)oxy]pyridin-2-yl}piperidin-1-yl)methyl]-1-[(2S)-1-methoxypropan-2-yl]-1H-benzimidazole-6-carboxylic acid]
pEC50 [1]: 6.54
Emax [2]: 74%

Cc1nnc(Cn2c(CN3CCC(c4cccc(OCc5ccc(Cl)cc5F)n4)CC3)nc3ccc(C(=O)O)cc32)o1 [Example 10A-29]
pEC50 [1]: 6.41
Emax [2]: 82%

CN1CC(Cn2c(CN3CCC(c4cccc(OCc5ccc(Cl)cc5F)n4)CC3)nc3ccc(C(=O)O)cc32)CC1=O (stereo not drawn) [Example 11A-42, 2-[(4-{6-[(4-chloro-2-fluorobenzyl)oxy]pyridin-2-yl}piperidin-1-yl]methyl]-1-[(1-methyl-5-oxopyrrolidin-3-yl)methyl]-1H-benzimidazole-6-carboxyl ic acid]
pEC50 [1]: 6.72

CN1CCCC(Cn2c(CN3CCC(c4cccc(OCc5ccc(Cl)cc5F)n4)CC3)nc3ccc(C(=O)O)cc32)C1 (stereo not drawn) [Example 11A-04, 2-[(4-{6-[(4-chloro-2-fluorobenzyl)oxy]pyridin-2-yl}piperidin-1-yl)methyl]-1-[(1-methylpiperidin-3-yl)methyl]-1H-benzimidazole-6-carboxylic acid]
pEC50 [1]: < 4.72
Emax [2]: 100%

O=C(O)c1ccc2nc(CN3CCC(c4cccc(OCc5ccc(Cl)cc5F)n4)CC3)n(CCc3c[nH]cn3)c2c1 [Example 11A-41, 2-[(4-{6-[(4-chloro-2-fluorobenzyl)oxy]pyridin-2-yl}piperidin-1-yl)methyl]-1-[2-(1H-imidazol-4-yl)ethyl]-1H-benzimidazole-6-carboxylic acid]
pEC50 [1]: 6.72
Emax [2]: 74%

O=C(O)c1ccc2nc(CN3CCC(c4cccc(OCc5ccc(Cl)cc5F)n4)CC3)n(Cc3ccc(Cl)cn3)c2c1 [Example 11A-02, 2-[(4-{6-[(4-chloro-2-fluorobenzyl)oxy]pyridin-2-yl}piperidin-1-yl)methyl]-1-[(5-chloropyridin-2-yl)methyl]-1H-benzimidazole-6-carboxylic acid]
pEC50 [1]: < 4.82
Emax [2]: 100%

2-[(4-{6-[(4-chloro-2-fluorobenzyl)oxy]pyridin-2-yl}piperidin-1-yl)methyl]-1-(tetrahydro-2H-pyran-2-ylmethyl)-1H-benzimidazole-6-carboxylic acid [Example 11A-48]
Assay 1 Emax (%) (CHO GLP-1R Clone H6, relative to saturating concentration of full agonist GLP-1 (1 μM), arithmetic mean): 71%

COCCn1c(CN2CCC(c3cccc(OCc4ccc(Cl)cc4F)n3)CC2)nc2ncc(C(=O)O)c(C)c21 [Example 2A-11, 2-[(4-{6-[(4-chloro-2-fluorobenzyl)oxy]pyridin-2-yl}piperidin-1-yl)methyl]-1-(2-methoxyethyl)-7-methyl-1H-imidazo[4,5-b]pyridine-6-carboxylic acid]
pEC50 [1]: 6.68
Emax [2]: 79%

Cc1nc2nc(CN3CCC(c4cccc(OCc5ccc(Cl)cc5F)n4)CC3)n(C)c2cc1C(=O)O [Example 2A-12, 2-[(4-{6-[(4-chloro-2-fluorobenzyl)oxy]pyridin-2-yl}piperidin-1-yl)methyl]-1,5-dimethyl-1H-imidazo[4,5-b]pyridine-6-carboxylic acid]
pEC50 [1]: 6.47
Emax [2]: 74%

CC1(Cn2c(CN3CCC(c4cccc(OCc5ccc(Cl)cc5F)n4)CC3)nc3ccc(C(=O)O)cc32)CCO1 (stereo not drawn) [Example 10A-53]
pEC50 [1]: 8.49
Emax [2]: 68%

COCCN1CCCC(Cn2c(CN3CCC(c4cccc(OCc5ccc(Cl)cc5F)n4)CC3)nc3ccc(C(=O)O)cc32)C1 (stereo not drawn) [Example 11A-13, 2-[(4-{6-[(4-chloro-2-fluorobenzyl)oxy]pyridin-2-yl}piperidin-1-yl)methyl]-1-{[1-(2-methoxyethyl)piperidin-3-yl]methyl}-1H-benzimidazole-6-carboxylic acid]
pEC50 [1]: < 4.70

COCCn1c(CN2CCN(c3cccc(OCc4ccc(Cl)cc4F)n3)C[C@@H]2C2CC2)nc2ccc(C(=O)O)cc21 [Example 12A-04, 2-{[(2S)-4-{6-[(4-chloro-2-fluorobenzyl)oxy]pyridin-2-yl}-2-cyclopropylpiperazin-1-yl]methyl}-1-(2-methoxyethyl)-1H-benzimidazole-6-carboxylic acid]
pEC50 [1]: 6.60
Emax [2]: 64%

Cc1cc(Cn2c(CN3CCC(c4cccc(OCc5ccc(Cl)cc5F)n4)CC3)nc3ccc(C(=O)O)cc32)no1 [Example 11A-35, 2-[(4-{6-[(4-chloro-2-fluorobenzyl)oxy]pyridin-2-yl}piperidin-1-yl)methyl]-1-[(5-methyl-1,2-oxazol-3-yl)methyl]-1H-benzimidazole-6-carboxylic acid]
pEC50 [1]: 6.96
Emax [2]: 74%

CCN1CCC[C@@H]1Cn1c(CN2CCC(c3cccc(OCc4ccc(Cl)cc4F)n3)CC2)nc2ccc(C(=O)O)cc21 [Example 11A-54, 2-[(4-{6-[(4-chloro-2-fluorobenzyl)oxy]pyridin-2-yl}piperidin-1-yl)methyl]-1-{[(2R)-1-ethylpyrrolidin-2-yl]methyl}-1H-benzimidazole-6-carboxylic acid]
pEC50 [1]: 6.30
Emax [2]: 69%

Cc1nc(Cn2c(CN3CCC(c4cccc(OCc5ccc(Cl)cc5F)n4)CC3)nc3ccc(C(=O)O)cc32)c(C)o1 [Example 11A-55, 2-[(4-{6-[(4-chloro-2-fluorobenzyl)oxy]pyridin-2-yl}piperidin-1-yl)methyl]-1-[(2,5-dimethyl-1,3-oxazol-4-yl)methyl]-1H-benzimidazole-6-carboxylic acid]
pEC50 [1]: 6.28
Emax [2]: 80%

Cn1c(CN2CCC(c3cccc(OCc4ccccc4OC(F)(F)F)n3)CC2)nc2ccc(C(=O)O)cc21 [Example 9A-10, 1-methyl-2-{[4-(6-{[2-(trifluoromethoxy)benzyl]oxy}pyridin-2-yl)piperidin-1-yl]methyl}-1H-benzimidazole-6-carboxylic acid]
pEC50 [1]: 5.35
Emax [2]: 48%

C[C@H]1CN(c2cccc(OCc3ccc(C#N)cc3)n2)CCN1Cc1nc2ccc(C(=O)O)cc2n1C[C@@H]1CCO1 [Example 10A-49, 2-{[(2S)-4-{6-[(4-cyanobenzyl)oxy]pyridin-2-yl}-2-methylpiperazin-1-yl]methyl}-1-[(2S)-oxetan-2-ylmethyl]-1H-benzimidazole-6-carboxylic acid]
pEC50 [1]: 9.25
Emax [2]: 73%
